The text below walks through data of article PMC6062138, “2,4-Diaminothieno[3,2-d]pyrimidines, a new class of anthelmintic with activity against adult and egg stages of whipworm” (PLoS Neglected Tropical Diseases, 2018).

Data set [1] relates to ex vivo T. muris adults. The following applies: read-out: EC50 T. muris paralysis assay; cited from earlier work.
In data set [2] the test system is CMT-93 rectal epithelial cells. In words: Neutral red cytotoxicity assay. Format: cell-based. The settings on record: Mus musculus, CMT93; CMT-93 cells, 72 hours, max 100 μM, n = 8, 95% confidence interval in parentheses. How it is done:
(§1) The mouse rectal epithelial cell line CMT-93 (LGC Promochem, Teddington, United Kingdom) was used for these studies. The WST-8 and neutral red cytotoxicity assays were performed as described. Briefly, cells were cultured with test compounds, chlorpromazine positive control or DMSO alone (final compound concentrations of 0 to 100 μM) for 72 hours. The WST-8 assay was then carried out using the Cell Counting Kit– 8 (Sigma Aldrich # 96992) with an incubation time of 2 hours. This time was chosen according to the manufacturer’s instructions and was such that the absorbance of the WST-8 formazan dye was within the linear range of the microplate reader. Following this assay, the medium was exchanged, and the ability of the cells to take up the dye neutral red (concentration 33 μg/mL, incubation time 2 hours) was determined using a microplate reader (absorbance at 540 nm). Results were analysed using GraphPad Prism and fitted using a log-logistic model.

Data set [3] concerns unembryonated T. muris eggs. The experiment in a line: Embryonation assay. Also noted: species or system Trichuris muris. The following applies: for Percentage of unembryonated eggs compared to the DMSO control: duration of embryonation (56–60 days). The procedure:
One hundred unembryonated eggs were treated with water, 1% v/v DMSO in water or test compounds at a final concentration of 100 μM (unless stated) with 1% v/v DMSO, in the dark at 26°C, either for 56 days or for shorter periods as described. Images were collected on an Olympus BX63 upright microscope using a 60x / 1.42 PlanApo N (Oil) objective and captured and white-balanced using an DP80 camera (Olympus) in monochrome mode through CellSens Dimension v1.16 (Olympus). Images were then processed and analysed using the image analysis platform Fiji.

In data set [4] the test system is C. elegans N2. In words: C. elegans growth assay. The arrangement: species or system Caenorhabditis elegans. The following applies: synchronised L1, 5 days at 20°C, EC50 estimate ± standard error. The procedure:
A mixed-stage C. elegans N2 population was obtained by liquid culture (20°C) according to standard methods. It was then bleached to obtain an egg population with 1.5 mL 4M NaOH, 2.4 mL NaOCl, 2.1 mL water, washed three times, and allowed to hatch in 50 mL S-basal buffer at 20°C overnight to obtain a synchronised L1 population. For the growth assay, 49 μL of S-complete buffer and 1 μL of DMSO or DMSO plus compound were added to each well of 96-well plates. 50 μL of a worm suspension (approximately 20 synchronised L1 worms, 1% w/v E. coli HB101 in S-complete buffer) were then added to each well. Plates were incubated at 20°C before imaging 5 days later. Worm movement was stimulated by inserting and removing a 96-well PCR plate into/from the wells of the assay plate, and then whole plate 200 frame movies were recorded at 30 frames per second. Growth was quantified as a correlate of movement using the same automated system described earlier, which estimates movement for each well by categorising pixels as imaging movement if their variance is greater the mean plus one standard deviation of the variances of all the pixels on the plate.

In data set [5] the test system is ex vivo T. muris adults. The experiment in a line: T. muris ex vivo adult motility (paralysis) assay. The arrangement: species or system Trichuris muris. The settings on record: for EC50: Trichuris muris; for Activity in hit confirmation and expansion motility screen: library material (DMSO solution), 100μM. The procedure:
T. muris worms were cultured using severe combined immune deficiency (SCID) mice, at the Biological Services Facility at the University of Manchester. Male and female mice were infected with 200 infective embryonated T. muris eggs via oral gavage. Thirty-five days later, the mice were sacrificed. Adult T. muris were obtained from the intestine as previously described. Worms were maintained in Roswell Park Memorial Institute (RPMI) 1640 media supplemented with penicillin (500 U/mL) and streptomycin (500 μg/mL) at approximately 37°C and studied on the same day.
Individual adult worms were added to wells containing 75 μL of RPMI-1640 medium, penicillin (500 U/mL), streptomycin (500 μg/mL) plus 1% v/v final concentration of dimethylsulfoxide (DMSO) or compound dissolved in DMSO. Plates were incubated at 37°C, 5% CO2. Motility was determined after 24 hours.
An automated system was used to quantify worm movement. An earlier version of this system has been previously described. Two hundred frame movies of the whole plate were recorded at 10 frames per second and then motility determined by an algorithm based on thresholding pixel variance over time. For the hit confirmation and expansion assays, library material was used at a final concentration of 100μM. Dose-response curves were calculated with the four factor log-logistic model using the R package drc or using GraphPad Prism.

Data set [6] relates to CMT-93 rectal epithelial cells. In words: WST-8 cytotoxicity assay. Format: cell-based. The following applies: Mus musculus, CMT93; CMT-93 cells, 72 hours, max 100 μM, n = 8, 95% confidence interval in parentheses. The procedure:
as §1
Background: Tetrazolium dyes change colour on reduction, which living cells bring about.

Details of data set [7]: method as in PMID 25370471, PMID 26787751. The settings on record: solid tumors; cited from earlier work.
For data set [8], the system named is C. elegans N2. Also noted: method as in PMID 29223747. The following applies: read-out: EC50 C. elegans growth assay; cited from earlier work.
Data set [9] relates to embryonated T. muris eggs. In words: In vitro hatching of compound-soaked embryonated eggs in E. coli culture. Also noted: species or system Trichuris muris. The following applies: eggs soaked 14 days at 100 μM, then 24 hours in E. coli culture at 37°C. The procedure:
(§2) 100 infective embryonated eggs were incubated in deionised water with 1% v/v DMSO or test compounds at a final concentration of 100 μM in 1% v/v DMSO for 14 days at room temperature in the dark. Eggs were then washed and resuspended in deionised water. For in vitro hatching assays 100 eggs were added to 1 mL of E. coli bacterial culture grown in LB broth overnight at 37°C shaking at 200 rpm. Egg-bacterial cultures were incubated for 24 hours at 37°C, 5% CO2 and hatching determined following blinding by visual examination under a dissecting microscope. For in vivo hatching assays, 40 eggs were counted under a dissecting microscope and given to a SCID mouse in 200 μL water. At day 15 post-infection mice were culled and the number of L2 larvae present in the caecae and colon enumerated in a blinded manner under a dissecting microscope.

Data set [10] deals with embryonated T. muris eggs. In words: In vivo hatching and infection establishment of treated eggs in SCID mice. The arrangement: species or system Trichuris muris in SCID mice. The following applies: eggs soaked 14 days in 100 μM; SCID mice given 40 eggs; L2 larvae counted day 15 post infection; batch normalised to DMSO. How it is done:
as §2
The experiment was conducted in two ‘experimental batches’. For batch one there were 5 mice in each of the DMSO and OX02926 groups. For batch two there were 9 mice in each of the DMSO and OX02926 groups. The raw data (number of worms that established infection in each mouse) are shown separated by batch and treatment in the S1 Fig.
To analyse the data we used a two-way ANOVA (worm number ~ treatment * batch). […] There was no significant interaction between treatment and batch [F(1,24) = 0.296, P = 0.59153]. […]

Another data set relates to T. trichiura. The settings on record: cited from earlier work; for Cure rate, T. trichiura infection: single dose; for Cure rate against whipworm: single doses as used in MDA, no reference given.
The mark [11] stands for this setting: shown for comparison in Table 1, read-out: Adult Trichuris paralysis assay EC50.

Like-named read-outs stand apart in the source and are kept apart here.

A word on the EC50: it is the midpoint of the concentration-response curve. For the compound `Cc1ccc(CN2C(=O)COCc3cc(-c4ccncc4)ccc32)cc1` [OX02983], the EC50 with ex vivo T. muris adults [1] was 50 ± 13 µM.
For the compound `CNc1nc(NCCOc2ccccc2Cl)c2sccc2n1` [OX03147, N^4-(2-(2-chlorophenoxy)ethyl)-N^2-methylthieno[3,2-d]pyrimidine-2,4-diamine], the EC50 is 21 µM in [2]; 11 ± 2 µM with C. elegans N2 [4] (Caenorhabditis elegans, 120 h); 44 µM in the data set on ex vivo T. muris adults [5] (setting [11]); 37 µM in data set [6]. The “Larval length after shortened exposure” value in data set [3] (100 μM, 26°C, 2–4 week and 4–6 week groups) is “not affected”; in data set [3] (100 μM, 26°C, soaking weeks 0–3, P = 0.0076 vs DMSO), “clear larval stunting”. Besides, in [3] (100 μM, 26°C), the “Percentage of unembryonated eggs compared to the DMSO control” value is reported as “significant increase”. In addition, in data set [3] (100 μM, 26°C, weeks 0–2, 0–3, 2–4 or 4–6 of embryonation), the “Proportion of unembryonated eggs after shortened exposure” value was “no increase”. Also, the “Morphology of L1 larvae within the egg after shortened exposure” value in data set [3] (100 μM, 26°C, weeks 0–3, 2–4 or 4–6) was “clear morphological alterations”. For the same compound, in data set [3] (concentration response, both 26°C and room temperature, 56 days), the “Drug dose at which increased number of unembryonated eggs was detected” value worked out at 100 µM. The “Effect on egg morphology / larval length at low concentration” value in data set [3] (concentrations as low as 1 μM, 26°C, 56 days) is recorded as “significant larval stunting”. For the same compound, in the data set on ex vivo T. muris adults [5], the “Activity in hit confirmation and expansion motility screen” value (“Activity” below) is listed as “active”.
Consider `CS(=O)(=O)N1CCN(Cc2cc3nc(-c4cccc5[nH]ncc45)nc(N4CCOCC4)c3s2)CC1` [Pictilisib, pictilisib], for which the “Tolerability in Phase I trials” value in [7] was “tolerated”.
On to `Cc1c(CN2CCN(C(=O)[C@H](C)O)CC2)sc2c(N3CCOCC3)nc(-c3cnc(N)nc3)nc12` [apitolisib], for which the “Tolerability in Phase I trials” value in data set [7] is “tolerated”.
As to `c1ccc([C@H]2CN3CCSC3=N2)cc1` [Levamisole], the EC50 was 8 ± 3 µM with ex vivo T. muris adults [1] and 5 ± 1 µM in the data set on C. elegans N2 [8].
As a reminder, the melting point is the temperature, or range, at which the solid turns liquid. Compound `COCCNc1nc(NCCOc2ccccc2Cl)c2sccc2n1` [OX02926, N^4-(2-(2-Chlorophenoxy)ethyl)-N^2-(2-methoxyethyl)thieno[3,2-d]pyrimidine-2,4-diamine] gave a melting point of 69 to 97 °C. The “In vitro hatching of treated embryonated eggs compared to DMSO control” value in [9] is recorded as “significant decrease”. Besides, the EC50 in data set [2] stood at 21 µM. Besides, in the data set with C. elegans N2 [4] (Caenorhabditis elegans, 120 h), the EC50 is 82 ± 37 µM. The EC50 with C. elegans N2 [4] is 87 ± 37 µM. In addition, in [10], the “Reduction of the burden of worms in vivo” value was around 40%. Moreover, the EC50 in the data set with ex vivo T. muris adults [5] (equivalent of 27μM, read-out: EC50 adult whipworm motility assay, mass equivalent) is 10.2 µg/mL. In addition, the EC50 in the data set on ex vivo T. muris adults [5] (setting [11]) was 27 µM. Also, the “Activity” value in the data set on ex vivo T. muris adults [5] is “confirmed this activity”. The EC50 in data set [6] is 43 µM.
As to `COc1ccccc1CNc1nc(NCCOc2ccccc2Cl)c2sccc2n1` [OX03143, N^4-(2-(2-chlorophenoxy)ethyl)-N^2-(2-methoxybenzyl)thieno[3,2-d]pyrimidine-2,4-diamine], the EC50 was 5 µM in data set [2]; 7 ± 1 µM in the data set with C. elegans N2 [4] (Caenorhabditis elegans, 120 h); above 80 µM in the data set on ex vivo T. muris adults [5] (setting [11]); 15 µM in [6]. The “Activity” value in the data set with ex vivo T. muris adults [5] is recorded as “active”.
As for `CNc1nc(NCCOc2ccccc2)c2sccc2n1` [OX02925, N^2-Methyl-N^4-(2-phenoxyethyl)thieno[3,2-d]pyrimidine-2,4-diamine], the EC50 in data set [2] is 29 µM; with C. elegans N2 [4] (Caenorhabditis elegans, 120 h), 82 ± 9 µM; with ex vivo T. muris adults [5] (setting [11]) it was 47 µM; in data set [6], 75 µM. Moreover, in data set [3] (100 μM, 26°C), the “Percentage of unembryonated eggs compared to the DMSO control” value is given as “significant increase”. Besides, the “Activity” value with ex vivo T. muris adults [5] is recorded as “active”.
With `COC(=O)Nc1nc2ccc(C(=O)c3ccccc3)cc2[nH]1` [Mebendazole], the “Cure rate, T. trichiura infection” value with T. trichiura is listed as 36%. Besides, the “Cure rate against whipworm” value with T. trichiura is reported as “less than 40%”. For the same compound, the EC50 was above 600 µM with ex vivo T. muris adults [1] and 1.1 ± 0.2 µM in the data set with C. elegans N2 [8].
For the compound `CCCSc1ccc2nc(NC(=O)OC)[nH]c2c1` [Albendazole], in the data set on T. trichiura, the “Cure rate, T. trichiura infection” value is on record as 28% and the “Cure rate against whipworm” value was “less than 40%”. The EC50 in the data set on ex vivo T. muris adults [1] was above 800 µM.
